Experiments:
[1] = Dissolution, USP method 2 (paddles at 75 rpm, 0.025 M NaH2PO4 with 2% SDS, pH 6.8); type: physicochemical; details: 2×100 mg, pH 6.8, paddles 75 rpm
Experimental: Dissolution of the wet granulation tablets of Example 1 and the dry formulation capsules of Example 2 was determined using USP method 2 (paddles at 75 rpm, 0.025 M NaH2PO4 with 2% sodium dodecyl sulfate (SDS), pH 6.8).

aqueous solubility = type: physicochemical
Excerpt: An obstacle to the use of 3-biphenyl-4-yl-(2S)-[(4′-trifluoromethyl-biphenyl-4-carbonyl)-amino]-propionic acid in certain pharmacological forms is its aqueous solubility (less than 0.5 micrograms/milliliter (μg/mL)), which may make the bioavailability of biphenyl-4-yl-(2S)-[(4′-trifluoromethyl-biphenyl-4-carbonyl)-amino]-propionic acid lower than desirable. A composition of the present invention, having an increased dissolution rate, advantageously enhances the bioavailability of 3-biphenyl-4-yl-(2S)-[(4′-trifluoromethyl-biphenyl-4-carbonyl)-amino]-propionic acid, particularly when dosed orally.

## O=C(N[C@@H](Cc1ccc(-c2ccccc2)cc1)C(=O)O)c1ccc(-c2ccc(C(F)(F)F)cc2)cc1 [3-biphenyl-4-yl-(2S)-[(4′-trifluoromethyl-biphenyl-4-carbonyl)-amino]-propionic acid]
[1]; Time 0 min
  Percent 3-Biphenyl-4-yl-(2S)-[(4′-trifluoromethyl-biphenyl-4-carbonyl)-amino]-propionic acid Dissolved: 0%
[1]; Time 15 min
  Percent 3-Biphenyl-4-yl-(2S)-[(4′-trifluoromethyl-biphenyl-4-carbonyl)-amino]-propionic acid Dissolved: 43.2%
[1]; Time 30 min
  Percent 3-Biphenyl-4-yl-(2S)-[(4′-trifluoromethyl-biphenyl-4-carbonyl)-amino]-propionic acid Dissolved: 57.0%
[1]; Time 45 min
  Percent 3-Biphenyl-4-yl-(2S)-[(4′-trifluoromethyl-biphenyl-4-carbonyl)-amino]-propionic acid Dissolved: 67.3%
[1]; Time 60 min
  Percent 3-Biphenyl-4-yl-(2S)-[(4′-trifluoromethyl-biphenyl-4-carbonyl)-amino]-propionic acid Dissolved: 73.9%
Aqueous solubility
  aqueous solubility: less than 0.5 μg/mL

Source: patent US20070082952A1, “Pharmaceutical compositions, methods of preparation thereof, and methods of treatment” (priority 2005, published 2007)
